In patent publication US20250136586A1, “Substituted 7-(Pyrimidin-4-yl)Quinolin-4(1H)-One Compounds as Cyclin Dependent Kinase Inhibitors” (BeiGene, Ltd., priority 2022, published 2025):

Assays:
CDK4/Cyclin D1 = CDK4/Cyclin D1 (Homo sapiens (Human), UniProt P11802); test: TR-FRET kinase inhibition assay, CDK4/Cyclin D1; assay type: biochemical; conditions: 1 mM ATP, 0.15 μM Rb (Ser780)-biotin substrate, read-out: CDK4D1 IC50
Procedure: Compounds disclosed herein were tested for inhibition of CDK4/Cyclin D1 or CDK6/Cyclin D3 kinase in an assay based on the time-resolved fluorescence-resonance energy transfer (TR-FRET) methodology. […] The kinase was incubated with compound for 60 minutes at room temperature and the reaction was initiated by the addition of ATP and Rb (Ser780)-biotin substrate. After reaction at room temperature for 120 minutes, an equal volume of stop/detection solution was added according to the manufacture's instruction (Cisbio Bioassays). The stop/detection solution contained Streptavidin-XL665 and Anti-pRb (Ser780) mAb-Eu Cryptate in Detection buffer (Cisbio Bioassays). […] The inhibition percentage of CDK4/Cyclin D1 or CDK6/Cyclin D3 kinase activity in presence of increasing concentrations of compounds was calculated based on the ratio of fluorescence at 665 nm to that at 620 nm. The IC50 for each compound was derived from fitting the data to the four-parameter logistic equation by Dotmatics.

CDK6/Cyclin D3 = CDK6/Cyclin D3 (Homo sapiens (Human), UniProt Q00534); test: TR-FRET kinase inhibition assay, CDK6/Cyclin D3; assay type: biochemical; conditions: 1 mM ATP, 0.15 μM Rb (Ser780)-biotin substrate, read-out: CDK6D3 IC50
Sequence of CDK6/Cyclin D3 (Q00534 whole entry): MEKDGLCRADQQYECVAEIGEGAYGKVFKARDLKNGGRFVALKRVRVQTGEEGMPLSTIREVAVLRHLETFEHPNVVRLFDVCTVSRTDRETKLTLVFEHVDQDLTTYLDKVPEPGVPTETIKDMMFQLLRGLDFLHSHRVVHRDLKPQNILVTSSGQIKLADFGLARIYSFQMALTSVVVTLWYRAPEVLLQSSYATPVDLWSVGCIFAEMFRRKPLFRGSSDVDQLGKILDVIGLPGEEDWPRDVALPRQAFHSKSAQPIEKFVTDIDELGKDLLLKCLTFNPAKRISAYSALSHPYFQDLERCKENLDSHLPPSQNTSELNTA
Sequence of CDK6/Cyclin D3 (P30281 whole entry partner): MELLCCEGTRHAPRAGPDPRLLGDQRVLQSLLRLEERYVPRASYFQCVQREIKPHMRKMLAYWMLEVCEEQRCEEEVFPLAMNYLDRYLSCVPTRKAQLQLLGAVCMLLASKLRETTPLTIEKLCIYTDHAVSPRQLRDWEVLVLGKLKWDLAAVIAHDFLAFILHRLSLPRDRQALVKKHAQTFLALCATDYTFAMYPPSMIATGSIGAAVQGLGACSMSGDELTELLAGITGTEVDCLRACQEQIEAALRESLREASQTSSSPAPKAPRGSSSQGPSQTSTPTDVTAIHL
Procedure: Compounds disclosed herein were tested for inhibition of CDK4/Cyclin D1 or CDK6/Cyclin D3 kinase in an assay based on the time-resolved fluorescence-resonance energy transfer (TR-FRET) methodology. The assay was carried out in 384-well low volume black plates in a reaction mixture containing CDK4/Cyclin D1 or CDK6/Cyclin D3, 1 mM ATP, 0.15 μM Rb (Ser780)-biotin substrate and 0-10 μM compound in buffer containing 50 mM HEPES pH7.0, 0.02% NaN3, 0.01% BSA, 0.1 mM Orthovanadate, 50 mM MgCl2, 1 mM DTT and 0.005% Tween-20. The kinase was incubated with compound for 60 minutes at room temperature and the reaction was initiated by the addition of ATP and Rb (Ser780)-biotin substrate. After reaction at room temperature for 120 minutes, an equal volume of stop/detection solution was added according to the manufacture's instruction (Cisbio Bioassays). The stop/detection solution contained Streptavidin-XL665 and Anti-pRb (Ser780) mAb-Eu Cryptate in Detection buffer (Cisbio Bioassays). Plates were incubated at room temperature for 60 minutes, and the TR-FRET signals (ex337 nm, em665 nm/620 nm) were recorded on a PHERAstar FSX plate reader (BMG Labtech). The inhibition percentage of CDK4/Cyclin D1 or CDK6/Cyclin D3 kinase activity in presence of increasing concentrations of compounds was calculated based on the ratio of fluorescence at 665 nm to that at 620 nm. The IC50 for each compound was derived from fitting the data to the four-parameter logistic equation by Dotmatics.

Sequence of CDK4/Cyclin D1 (P11802 whole entry): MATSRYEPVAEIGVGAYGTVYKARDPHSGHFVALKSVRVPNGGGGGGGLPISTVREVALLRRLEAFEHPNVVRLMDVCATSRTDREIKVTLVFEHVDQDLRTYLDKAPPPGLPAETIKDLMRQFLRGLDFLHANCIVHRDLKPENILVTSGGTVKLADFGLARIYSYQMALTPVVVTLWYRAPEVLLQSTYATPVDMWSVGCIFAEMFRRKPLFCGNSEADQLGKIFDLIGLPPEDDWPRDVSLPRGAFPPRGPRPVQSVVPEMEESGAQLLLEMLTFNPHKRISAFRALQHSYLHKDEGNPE
Sequence of CDK4/Cyclin D1 (P24385 whole entry partner): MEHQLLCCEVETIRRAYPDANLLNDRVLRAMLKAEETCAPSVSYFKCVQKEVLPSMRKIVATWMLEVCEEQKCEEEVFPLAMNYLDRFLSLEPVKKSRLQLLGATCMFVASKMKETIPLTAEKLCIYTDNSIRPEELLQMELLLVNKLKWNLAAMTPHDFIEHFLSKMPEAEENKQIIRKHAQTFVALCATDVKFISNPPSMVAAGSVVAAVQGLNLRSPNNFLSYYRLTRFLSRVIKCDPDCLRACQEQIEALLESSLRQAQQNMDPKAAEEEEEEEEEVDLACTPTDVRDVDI

SMILES	IC50 (CDK4/Cyclin D1) [nM]	IC50 (CDK6/Cyclin D3) [nM]
CC(C)n1c(CN2C[C@H]3COC[C@H]3C2)cc(=O)c2ccc(-c3nc(N[C@@H]4CCOC[C@H]4O)ncc3F)cc21 [Example 41, 7-(5-fluoro-2-(((3S,4R)-3-hydroxytetrahydro-2H-pyran-4-yl)amino)pyrimidin-4-yl)-1-isopropyl-2-(((3aR,6aS)-tetrahydro-1H-furo[3,4-c]pyrrol-5(3H)-yl)methyl)quinolin-4(1H)-one]	24	1300
CC(C)n1c(CN2CCC[C@@H](C#N)C2)cc(=O)c2ccc(-c3nc(N[C@@H]4CCOC[C@H]4O)ncc3F)cc21 [Example 88, (R)-1-((7-(5-fluoro-2-(((3S,4R)-3-hydroxytetrahydro-2H-pyran-4-yl)amino)pyrimidin-4-yl)-1-isopropyl-4-oxo-1,4-dihydroquinolin-2-yl)methyl)piperidine-3-carbonitrile]	4.1	406
CC(C)n1c(CNC2CCCC2)cc(=O)c2ccc(-c3nc(N[C@@H]4CCOC[C@H]4O)ncc3F)cc21 [Example 66, 2-((cyclopentylamino)methyl)-7-(5-fluoro-2-(((3S,4R)-3-hydroxytetrahydro-2H-pyran-4-yl)amino)pyrimidin-4-yl)-1-isopropylquinolin-4(1H)-one]	21	651
CC(C)n1c(CN2CC[C@H](F)[C@@H](O)C2)cc(=O)c2ccc(-c3nc(N[C@@H]4CCOC[C@H]4O)ncc3F)cc21 [Example 85, 7-(5-fluoro-2-(((3S,4R)-3-hydroxytetrahydro-2H-pyran-4-yl)amino)pyrimidin-4-yl)-2-(((3S,4S)-4-fluoro-3-hydroxypiperidin-1-yl)methyl)-1-isopropylquinolin-4(1H)-one]	19	494
CC(=O)NCc1cc(=O)c2ccc(-c3nc(N[C@@H]4CCOC[C@H]4O)ncc3F)cc2n1C(C)C [Example 50, N-((7-(5-fluoro-2-(((3S,4R)-3-hydroxytetrahydro-2H-pyran-4-yl)amino)pyrimidin-4-yl)-1-isopropyl-4-oxo-1,4-dihydroquinolin-2-yl)methyl)acetamide]	16	688
Cc1c(C2CCN2)n(C(C)C)c2cc(-c3nc(N[C@@H]4CCOC[C@H]4O)ncc3F)ccc2c1=O (stereo partly drawn) [Example 386, 2-(azetidin-2-yl)-7-(5-fluoro-2-(((3S,4R)-3-hydroxytetrahydro-2H-pyran-4-yl)amino)pyrimidin-4-yl)-1-isopropyl-3-methylquinolin-4(1H)-one]	12	375
CC(C)n1cc(C2CC2)c(=O)c2ccc(-c3nc(N[C@@H]4CCOC[C@H]4O)ncc3F)cc21 [Example 9, 3-cyclopropyl-7-(5-fluoro-2-(((3S,4R)-3-hydroxytetrahydro-2H-pyran-4-yl)amino)pyrimidin-4-yl)-1-isopropylquinolin-4(1H)-one]	59	590
Cc1c(CN2CC[C@](C)(O)C2)n(C(C)C)c2cc(-c3nc(N[C@@H]4CCOC[C@H]4O)ncc3F)ccc2c1=O [Example 125, 7-(5-fluoro-2-(((3S,4R)-3-hydroxytetrahydro-2H-pyran-4-yl)amino)pyrimidin-4-yl)-2-(((S)-3-hydroxy-3-methylpyrrolidin-1-yl)methyl)-1-isopopyl-3-methylquinolin-4(1H)-one]	15	360
CC(C)n1c(CN2[C@@H](C)COC[C@@H]2C)cc(=O)c2ccc(-c3nc(N[C@@H]4CCOC[C@H]4O)ncc3F)cc21 [Example 93, 2-(((3S,5S)-3,5-dimethylmorpholino)methyl)-7-(5-fluoro-2-(((3S,4R)-3-hydroxytetrahydro-2H-pyran-4-yl)amino)pyrimidin-4-yl)-1-isopropylquinolin-4(1H)-one]	8.7	296
Cc1c(CN2CCC(O)CC2)n(C(C)C)c2cc(-c3nc(N[C@@H]4CCOC[C@H]4O)ncc3F)ccc2c1=O [Example 115, 7-(5-fluoro-2-(((3S,4R)-3-hydroxytetrahydro-2H-pyran-4-yl)amino)pyrimidin-4-yl)-2-((4-hydroxypiperidin-1-yl)methyl)-1-isopropyl-3-methylquinolin-4(1H)-one]	6.6	271
CC(C)n1c(CN2CCC[C@H](O)C2)cc(=O)c2ccc(-c3nc(N[C@@H]4CCOC[C@H]4O)ncc3F)cc21 [Example 56, 7-(5-fluoro-2-(((3S,4R)-3-hydroxytetrahydro-2H-pyran-4-yl)amino)pyrimidin-4-yl)-2-(((S)-3-hydroxypiperidin-1-yl)methyl)-1-isopropylquinolin-4(1H)-one]	7	238
Cc1c(CN2CCCC3(CCNC3=O)C2)n(C(C)C)c2cc(-c3nc(N[C@@H]4CCOC[C@H]4O)ncc3F)ccc2c1=O (stereo partly drawn) [Example 124, 7-((7-(5-fluoro-2-(((3S,4R)-3-hydroxytetrahydro-2H-pyran-4-yl)amino)pyrimidin-4-yl)-1-isopropyl-3-methyl-4-oxo-1,4-dihydroquinolin-2-yl)methyl)-2,7-diazaspiro[4.5]decan-1-one]	5	230
Cc1c(CN2CC[C@@H](F)C2)n(C(C)C)c2cc(-c3nc(N[C@@H]4CCOC[C@H]4O)ncc3F)ccc2c1=O [Example 92, 7-(5-fluoro-2-(((3S,4R)-3-hydroxytetrahydro-2H-pyran-4-yl)amino)pyrimidin-4-yl)-2-(((R)-3-fluoropyrrolidin-1-yl)methyl)-1-isopropyl-3-methylquinolin-4(1H)-one]	4.1	131
CC(C)n1c(CN2CCC3(CCCO3)CC2)cc(=O)c2ccc(-c3nc(N[C@@H]4CCOC[C@H]4O)ncc3F)cc21 [Example 44, 2-((1-oxa-8-azaspiro[4.5]decan-8-yl)methyl)-7-(5-fluoro-2-(((3S,4R)-3-hydroxytetrahydro-2H-pyran-4-yl)amino)pyrimidin-4-yl)-1-isopropylquinolin-4(1H)-one]	29	1280
CC(C)n1c(CN2CCOCC2)cc(=O)c2ccc(-c3nc(N[C@@H]4CCOC[C@H]4O)ncc3Cl)cc21 [Example 26, 7-(5-chloro-2-(((3S,4R)-3-hydroxytetrahydro-2H-pyran-4-yl)amino)pyrimidin-4-yl)-1-isopropyl-2-(morpholinomethyl)quinolin-4(1H)-one]	16	336
Cc1c(CN2CCCC(F)(F)C2)n(C(C)C)c2cc(-c3nc(N[C@@H]4CCOC[C@H]4O)ncc3F)ccc2c1=O [Example 116, 2-((3,3-difluoropiperidin-1-yl)methyl)-7-(5-fluoro-2-(((3S,4R)-3-hydroxytetrahydro-2H-pyran-4-yl)amino)pyrimidin-4-yl)-1-isopropyl-3-methylquinolin-4(1H)-one]	3.9	176
Cc1c(CN(C)C)n(C(C)C)c2cc(-c3nc(N[C@@H]4CCOC[C@H]4O)ncc3F)ccc2c1=O [Example 108, 2-((dimethylamino)methyl)-7-(5-fluoro-2-(((3S,4R)-3-hydroxytetrahydro-2H-pyran-4-yl)amino)pyrimidin-4-yl)-1-isopropyl-3-methylquinolin-4(1H)-one]	14	392
CC(C)n1c(CN2C[C@H](O)[C@@H](F)C2)cc(=O)c2ccc(-c3nc(N[C@@H]4CCOC[C@H]4O)ncc3F)cc21 [Example 32, 7-(5-fluoro-2-(((3S,4R)-3-hydroxytetrahydro-2H-pyran-4-yl)amino)pyrimidin-4-yl)-2-(((3S,4S)-3-fluoro-4-hydroxypyrrolidin-1-yl)methyl)-1-isopropylquinolin-4(1H)-one]	10	200
CC(C)n1c(CN[C@@H]2CCOC2)cc(=O)c2ccc(-c3nc(N[C@@H]4CCOC[C@H]4O)ncc3F)cc21 [Example 65, 7-(5-fluoro-2-(((3S,4R)-3-hydroxytetrahydro-2H-pyran-4-yl)amino)pyrimidin-4-yl)-1-isopropyl-2-((((R)-tetrahydrofuran-3-yl)amino)methyl)quinolin-4(1H)-one]	31	744
CC(C)NCc1cc(=O)c2ccc(-c3nc(N[C@@H]4CCOC[C@H]4O)ncc3F)cc2n1C(C)C [Example 47, 7-(5-fluoro-2-(((3S,4R)-3-hydroxytetrahydro-2H-pyran-4-yl)amino)pyrimidin-4-yl)-1-isopropyl-2-((isopropylamino)methyl)quinolin-4(1H)-one]	14	658
